Measurements reported in patent publication US11584727B2, “2-thioxothiazolidin-4-one derivatives active as transthyretin ligands and uses thereof” (BSIM Therapeutics, S.A., priority 2014, dated 2023).
One block for each molecule: values may come before it.

Experiments:
[1] = HepG2 cell viability, resazurin reduction assay; format: cell-based; conditions: human, HepG2 hepatoma cells, approximately 72 hours incubation, read-out: inhibitory dose (ID50), cell viability
Description: Cell viability of HepG2 hepatoma cells was quantified in order to assess the toxicity of the compounds at increasing concentrations. The used assay is described in detail in the “Experimental Evaluation of Cytotoxicity of Compounds using Cell-based Assays” section in “Materials and Methods”. This is a relevant assessment not just to discard potential concerns of liver damage (which is a problem reported for many drugs) but also because of the long-term nature of the treatments that patients suffering from TTR-mediated amyloidoses need to undertake.
Adherent human hepatoma cells HepG2 were cultured in DMEM (Dulbecco's Modified Eagle's Medium) with 10% fetal bovine serum (FBS), 100 U/mL penicillin, […] streptomycin, and 1 mM sodium pyruvate. The cells were grown in 75 cm^2 culture flasks at 37° C., in an atmosphere of 5% CO2, and subcultured twice a week using a trypsin-EDTA solution.
Upon 3 to 4 days of growth and reaching approximately 90% confluence, HepG2 cells were plated in 96-well microplates with cell density of 12×10^3 cells/well and in a volume of 100 μL per well.
The compounds are dissolved in DMSO and subsequently diluted in DMEM (in 9 intermediate […] concentrations). After adhesion of HepG2 cells to the microplates, […] 100 μL of each solution of intermediate compound concentration were added to each well (in quadruplicate). Positive controls were done with 10 wells containing only cells; solvent controls resulted from the analysis of the three highest DMSO concentrations tested and were carried out in triplicate.
After addition of the compounds to the cells, the microplates were incubated for approximately 72 hours at 37° C. in an atmosphere of 5% CO2 until the cell viability assay was performed.
The cell viability of HepG2 cells in the presence of test compounds was assessed by the resazurin reduction assay. Resazurin is a redox indicator that is converted into resorufin through reduction reactions of metabolically active cells. In the oxidized form it presents a purplish blue color, while the reduced form presents a purple-pink color.
A stock solution of 0.01% resazurin in PBS is diluted 1:10 in incomplete RPMI 1640 cell medium (without addition of antibiotics and FBS). After washing the cells with 200 μL PBS containing Ca^2+ and Mg^2+, 200 μL of resazurin 0.001% are added to the wells. Control runs with incomplete RPMI 1640 medium only and (without cells) are done in triplicate. […]
To quantify the reduction of resazurin to resorufin, microplate absorbance readings were taken at two wavelengths, 540 nm (reduced form) and 630 nm (oxidized form), in a Biotek spectrophotometer microplate reader. The percentage of viable cells at each compound concentration is determined using the formula: […]

[2] = biological target: T1, wild type transthyretin (WT-TTR) (Homo sapiens, UniProt P02766); assay: WT-TTR amyloid fibril formation assay (turbidimetry, acid-induced); format: biochemical; conditions: pH 4.4, 72 hours
T1 construct: made in house; host or cells: E. coli BL21 (DE3), pET23a plasmid
Protocol: (§1) The first set of evaluations is based on a fast, stagnant fibril formation assay that is used for the early screening of compounds, be they virtual screening hits or newly synthesized analogues. In this assay, a solution of the compound under test at 1.8, 3.6 or 7.2 μM is added to a solution of TTR at 3.6 μM, so that there is enough compound to bind to either one or both of TTR's binding sites. The pH of the resulting solution is then lowered to 4.4 to promote amyloidogenesis. The process of amyloid fibril formation over time is assessed by turbidimetry measurements at three different wavelengths (405, 450 and 490 nm, or at 550, 600 and 650 nm when the compound absorbs light at the previous wavelengths), using a spectrophotometer endowed with a BioTek microplate reader. The extent of fibril formation of each mixture is determined by normalizing a sample with the protein (TTR), in absence of compounds, which, at the end of 72 hours, represents 100% of amyloid fibril formation. In each experiment, each compound concentration is tested in triplicate. For each compound concentration and incubation time, the arithmetic mean of the triplicate experiments is calculated, as well as the arithmetic mean of the three measured wavelengths. High activity can be defined as a percentage of fibril formation below 10% at compound concentration 7.2 μM (TTR:compound stoichiometry 1:2) and below 40% at 3.6 μM (TTR:compound stoichiometry 1:1).
The in vitro activity of the compounds was assessed through a biochemical assay based on turbidimetry measurements, in which fibril formation is induced by acidification of the solution to pH 4.4 after incubation with the hit compound to be tested. The amount of amyloid fibrils formed is then monitored throughout 72 hours. Further details on this assay are provided in the “Evaluation of amyloid inhibition in vitro” subsection in “Materials and Methods”.
Experimental evaluation of the in vitro activity of virtual screening hits against amyloid fibril formation by TTR was carried out using a biochemical assay based on turbidimetry measurements. In this assay, fibril formation is induced by acidification of the solution to pH 4.4 after incubation with the hit compound to be tested. The amount of amyloid fibrils formed is monitored over 72 hours. Further details on the assay are provided in the “Evaluation of amyloid inhibition in vitro” subsection below.
(§2) Purchased virtual screening hits and all synthesized (optimization) derivatives were dissolved in DMSO to a final concentration of 10.8 mM to provide a primary stock solution. Several secondary stock solutions were prepared in DMSO by dilution of the primary stock solution and the concentrations were chosen depending on the effectiveness of the compound in inhibiting the TTR amyloid fibril formation.
(§3) The fibril formation assay was adapted to run in a high-throughput screening mode. For this purpose, 96-well microplates were used with a final assay volume of 100 μL.
(§4) One microLitre (μL) of different compound secondary stock solutions was added to 50 μL of a 7.2 μM wild type TTR (WT-TTR) or Val122Ile-TTR (V122I-TTR) solutions in 10 miliMolar (mM) sodium phosphate buffer, 100 mM KCl and 1 mM EDTA, pH 7.2, previously dialyzed against the same buffer solution. After 30 minutes of incubation at room temperature, the pH of the mixture was lowered to 4.4 with 49 μL of 200 mM acetate buffer, 100 mM KCl and 1 mM EDTA, pH 4.3.
(§5) The mixtures were incubated at 37° C. during 72 hours. Turbidity at 405 nm, 450 nm and 490 nm (or at 550, 600 and 650 nm when the test compound absorbs light at the previous wavelengths) was measured over time (0, 17, 24, 41, 48, 65 and 72 hours) using a BioTek Microplate Spectrophotometer to evaluate the extent of fibril formation. Immediately before the turbidity measurements, the mixtures were gently shacked during 1 minute to homogenize well and not damage the formed amyloid aggregates and fibrils.

[3] = biological target: Val122Ile transthyretin (V122I-TTR) (Homo sapiens, UniProt P02766, V142I); assay: V122I-TTR amyloid fibril formation assay (turbidimetry, acid-induced); format: biochemical; conditions: pH 4.4, 72 hours
Protocol: as §1, §2, §3, §4
as §5, with “fibrils. The final turbidity was calculated as an average of the three wavelengths measured.” for “fibrils.”
In addition, control samples containing TTR with no inhibitor and 1% DMSO, as well as inhibitor in absence of TTR were tested and analyzed.
The extent of amyloid fibril formation data was normalized to TTR in the absence of inhibitor, assigned to be 100% fibril formation (or 0% amyloid inhibition) at the end of the experiment.
The extent of amyloid fibril formation throughout 72 hours was determined as described in the “Evaluation of amyloid inhibition in vitro” subsection above.
IC50 values were calculated from the inhibition curves obtained by fitting the values by a nonlinear curve method using the OriginPro7 (OriginLab Corporation, USA).

FAP patients = conditions: 18-month phase-III clinical trial; cited from earlier work
AD/TTR+/− mice = conditions: cited from earlier work

Fibril Formation (%) ([2]; WT-TTR 3.6 μM, 1:1 TTR-compound stoichiometry, 37° C., normalized to no-compound control (100%)): 10%
IC50 ([2]; WT-TTR fixed at 3.6 μM, ten compound concentrations): 1.17 ± 0.03 µM
melting point: 262 to 264 °C
Fibril Formation (%) ([3]; V122I-TTR 3.6 μM, 37° C.): 19%
IC50 ([3]; V122I-TTR fixed at 3.6 μM, ten compound concentrations): 1.61 µM
Compound: O=C(O)CN1C(=O)/C(=C/c2cc(Cl)c(O)c(Cl)c2)SC1=S [AT50-A03, (Z)-3-hydroxycarbonylmethyl-5-(3′,5′-dichloro-4′-hydroxyphenylmethylidene)-2-thioxothiazolidin-4-one]
IC50 at 72 h [1]: > 400 µM

Compound: CNC[C@H](O)[C@@H](O)[C@H](O)[C@H](O)CO.O=C(O)c1ccc2nc(-c3cc(Cl)cc(Cl)c3)oc2c1 [Tafamidis meglumine, N-methyl D-(2,3,4,5,6-pentahydroxy-hexyl)-ammonium; 2-(3,5-dichloro-phenyl)-benzoxazole-6-carboxylate]
FAP patients with improvement of symptoms (FAP patients): approximately 60%

Compound: O=C(O)c1cc(-c2ccc(F)cc2F)cc(I)c1O [iododiflunisal]
brain Abeta levels and deposition, cognitive function (AD/TTR+/− mice): decreased brain Abeta levels and deposition
